Data reported in PMC6877352, “Modifying the Siderophore Triacetylfusarinine C for Molecular Imaging of Fungal Infection” (Molecular imaging and biology, 2019).

Assays:
[1] = tested on: A. fumigatus wildtype (ATCC46645); test: In vitro uptake assay in A. fumigatus; assay type: cell-based, Aspergillus fumigatus; conditions: iron-starvation condition, 45 min, normalized to [^68Ga]TAFC uptake from the same experiment, n = 3
Experimental: For in vitro uptake studies, A. fumigatus wildtype (ATCC46645) was used. Fungal strain was cultured at 37 °C in Aspergillus minimal medium (AMM) containing 1 % (m/v) glucose as carbon source, 20 mM glutamine as nitrogen source, salts, and trace elements. Iron-sufficient media were prepared by adding FeSO4 to a final concentration of 30 μM. For iron-deficient conditions, supplementation of iron was omitted. Iron starvation was verified by the detection of extracellular siderophore production which is suppressed by iron supplementation.
Uptake assays were performed in either iron-deficient or iron-sufficient A. fumigatus wildtype cultures. In a 96-well MultiScreen Filter Plates HTS (1 μm glass fiber filter, Merck Millipore, Darmstadt, Germany), 180 μl of A. fumigatus suspended in iron-replete or iron-depleted medium was added. [^68Ga]siderophores (approx. 1 × 10^5 cpm, 80 nM) were incubated with either PBS pH 7.4 (total series) or blocking solution (10 μM [Fe]TAFC) (non-specific series) at RT for 45 min in quadriplicates. The incubation was interrupted by suction of the medium and the plate was washed twice with ice-cold TRIS-buffered saline (10 mM, pH 7.3). The filters were isolated and the remaining activities were measured in the gamma counter. The uptake was calculated as % uptake of total activity added; each assay was repeated three times. To normalize uptake variations between different fungal cultures, the uptake of each [^68Ga]siderophore was expressed as the ratio to [^68Ga]TAFC uptake from the same experiment. The mean values of three different assays were used to quantitatively compare the difference in uptake between the compounds.

[2] = tested on: A. fumigatus mutant strain ΔsidA/ΔftrA; test: Siderophore utilization growth assay; assay type: cell-based, Aspergillus fumigatus; conditions: 37 °C; for degree of utilization / growth support by [Fe]siderophore: 0.1-100 μM [Fe]siderophore in AMM; for concentration of [Fe]siderophore at which growth was supported: 48 h incubation
Source text: For siderophore utilization growth assays, A. fumigatus mutant strain ΔsidA/ΔftrA [7], which can grow only in the presence of externally added iron-siderophores or at high iron concentrations, was used. The fungal strain was inoculated in iron-deficient culture as described above.
To investigate the ability or inability of A. fumigatus to take up and utilize [Fe]siderophores as iron source, a growth assay with the A. fumigatus mutant strain ΔsidA/ΔftrA was employed. In a 24-well plate, aliquots of 10^3 conidia of mutant strain were point inoculated on 1 ml of AMM containing 0.1, 1, 10, 50, or 100 μM of [Fe]siderophore and incubated at 37 °C for 48 h. For the control, fungi were grown in iron-limited AMM without adding [Fe]siderophore.

CC(=O)NC1CCCN(O)C(=O)C=C(C)CCOC(=O)C(NC(=O)c2ccccc2)CCCN(O)C(=O)C=C(C)CCOC(=O)C(NC(C)=O)CCCN(O)C(=O)C=C(C)CCOC1=O (stereo not shown) (68Ga complex, metal not drawn) [DABzFC]
uptake ratio to [^68Ga]TAFC [1]: 0.53

CC(=O)NC1CCCN(O)C(=O)C=C(C)CCOC(=O)C(NC(=O)CN)CCCN(O)C(=O)C=C(C)CCOC(=O)C(NC(C)=O)CCCN(O)C(=O)C=C(C)CCOC1=O (stereo not shown) (68Ga complex, metal not drawn) [DAFC(gly)]
uptake ratio to [^68Ga]TAFC [1]: 0.89
uptake ratio to [^68Ga]TAFC ([1]; listed as [^68Ga]DAFC(gly)): around 1

CC(=O)NC1CCCN(O)C(=O)C=C(C)CCOC(=O)C(NC(=O)CCC(=O)O)CCCN(O)C(=O)C=C(C)CCOC(=O)C(NC(C)=O)CCCN(O)C(=O)C=C(C)CCOC1=O (stereo not shown) (68Ga complex, metal not drawn) [DAFC(suc)]
uptake ratio to [^68Ga]TAFC [1]: 0.33

CC(=O)NC1CCCN(O)C(=O)C=C(C)CCOC(=O)C(NC(C)=O)CCCN(O)C(=O)C=C(C)CCOC(=O)C(N)CCCN(O)C(=O)C=C(C)CCOC1=O (stereo not shown) (68Ga complex, metal not drawn) [DAFC]
uptake ratio to [^68Ga]TAFC [1]: 0.56

CCC(=O)NC1CCCN(O)C(=O)C=C(C)CCOC(=O)C(NC(C)=O)CCCN(O)C(=O)C=C(C)CCOC(=O)C(NC(C)=O)CCCN(O)C(=O)C=C(C)CCOC1=O (stereo not shown) (68Ga complex, metal not drawn) [DAPFC]
uptake ratio to [^68Ga]TAFC [1]: 0.99
uptake ratio to [^68Ga]TAFC ([1]; listed as [^68Ga]DAPFC): around 1

CC1=CC(=O)N(O)CCCC(NC(=O)CN)C(=O)OCCC(C)=CC(=O)N(O)CCCC(NC(=O)CN)C(=O)OCCC(C)=CC(=O)N(O)CCCC(NC(=O)CN)C(=O)OCC1 (stereo not shown) (68Ga complex, metal not drawn) [FSC(gly)3]
uptake ratio to [^68Ga]TAFC [1]: 0.01
uptake ratio to [^68Ga]TAFC ([1]; listed as [^68Ga]FSC(gly)3): less than 0.05

CC(=O)NC1CCCN(O)C(=O)C=C(C)CCOC(=O)C(NC(=O)CN)CCCN(O)C(=O)C=C(C)CCOC(=O)C(NC(=O)CN)CCCN(O)C(=O)C=C(C)CCOC1=O (stereo not shown) (68Ga complex, metal not drawn) [MAFC(gly)2]
uptake ratio to [^68Ga]TAFC [1]: 0.03
uptake ratio to [^68Ga]TAFC ([1]; listed as [^68Ga]MAFC(gly)2): less than 0.05

CC(=O)NC1CCCN(O)C(=O)C=C(C)CCOC(=O)C(NC(=O)CCC(=O)O)CCCN(O)C(=O)C=C(C)CCOC(=O)C(NC(=O)CCC(=O)O)CCCN(O)C(=O)C=C(C)CCOC1=O (stereo not shown) (68Ga complex, metal not drawn) [MAFC(suc)2]
uptake ratio to [^68Ga]TAFC [1]: 0.04
uptake ratio to [^68Ga]TAFC ([1]; listed as [^68Ga]MAFC(suc)2): less than 0.05

CC(=O)NC1CCCN(O)C(=O)C=C(C)CCOC(=O)C(N)CCCN(O)C(=O)C=C(C)CCOC(=O)C(N)CCCN(O)C(=O)C=C(C)CCOC1=O (stereo not shown) (68Ga complex, metal not drawn) [MAFC]
uptake ratio to [^68Ga]TAFC [1]: 0.26

CCCC(=O)NC1CCCN([O-])C(=O)C=C(C)CCOC(=O)C(NC(C)=O)CCCN([O-])C(=O)C=C(C)CCOC(=O)C(NC(C)=O)CCCN([O-])C(=O)C=C(C)CCOC1=O.[Fe+3] (stereo not shown) [[Fe]DABuFC, butanoyl[Fe]DAFC]
degree of utilization / growth support by [Fe]siderophore ([2]; 48 h): Medium degree

CC(=O)NC1CCCN([O-])C(=O)C=C(C)CCOC(=O)C(NC(=O)c2ccccc2)CCCN([O-])C(=O)C=C(C)CCOC(=O)C(NC(C)=O)CCCN([O-])C(=O)C=C(C)CCOC1=O.[Fe+3] (stereo not shown) [[Fe]DABzFC, benzoyl[Fe]DAFC]
degree of utilization / growth support by [Fe]siderophore ([2]; 48 h): Medium degree

CC(=O)NC1CCCN([O-])C(=O)C=C(C)CCOC(=O)C(NC(=O)CN)CCCN([O-])C(=O)C=C(C)CCOC(=O)C(NC(C)=O)CCCN([O-])C(=O)C=C(C)CCOC1=O.[Fe+3] (stereo not shown) [[Fe]DAFC(gly), glycyl[Fe]DAFC]
degree of utilization / growth support by [Fe]siderophore ([2]; 48 h): low degree
concentration of [Fe]siderophore at which growth was supported [2]: 1 µM

CC(=O)NC1CCCN([O-])C(=O)C=C(C)CCOC(=O)C(NC(=O)CCC(=O)O)CCCN([O-])C(=O)C=C(C)CCOC(=O)C(NC(C)=O)CCCN([O-])C(=O)C=C(C)CCOC1=O.[Fe+3] (stereo not shown) [[Fe]DAFC(suc), succinyl[Fe]DAFC]
degree of utilization / growth support by [Fe]siderophore ([2]; 48 h): low degree
concentration of [Fe]siderophore at which growth was supported [2]: 1 µM

CC(=O)NC1CCCN([O-])C(=O)C=C(C)CCOC(=O)C(NC(C)=O)CCCN([O-])C(=O)C=C(C)CCOC(=O)C(N)CCCN([O-])C(=O)C=C(C)CCOC1=O.[Fe+3] (stereo not shown) [[Fe]DAFC, diacetyl[Fe]FSC]
concentration of [Fe]siderophore at which growth was supported [2]: 0.1 µM

CCC(=O)NC1CCCN([O-])C(=O)C=C(C)CCOC(=O)C(NC(C)=O)CCCN([O-])C(=O)C=C(C)CCOC(=O)C(NC(C)=O)CCCN([O-])C(=O)C=C(C)CCOC1=O.[Fe+3] (stereo not shown) [[Fe]DAPFC, propanoyl[Fe]DAFC]
degree of utilization / growth support by [Fe]siderophore ([2]; 48 h): Medium degree

CC1=CC(=O)N([O-])CCCC(NC(=O)CN)C(=O)OCCC(C)=CC(=O)N([O-])CCCC(NC(=O)CN)C(=O)OCCC(C)=CC(=O)N([O-])CCCC(NC(=O)CN)C(=O)OCC1.[Fe+3] (stereo not shown) [[Fe]FSC(gly)3, triglycyl[Fe]FSC]
degree of utilization / growth support by [Fe]siderophore ([2]; 48 h): low degree
concentration of [Fe]siderophore at which growth was supported [2]: 1 µM

CC1=CC(=O)N([O-])CCCC(NC(=O)CCC(=O)O)C(=O)OCCC(C)=CC(=O)N([O-])CCCC(NC(=O)CCC(=O)O)C(=O)OCCC(C)=CC(=O)N([O-])CCCC(NC(=O)CCC(=O)O)C(=O)OCC1.[Fe+3] (stereo not shown) [[Fe]FSC(suc)3, trisuccinyl[Fe]FSC]
growth at 50 μM [Fe]siderophore ([2]; 50 μM, 48 h): no growth
growth at 100 μM [Fe]siderophore ([2]; 100 μM, 48 h): sporulation defect
degree of utilization / growth support by [Fe]siderophore ([2]; 48 h): lowest level of growth

CC1=CC(=O)N([O-])CCCC(N)C(=O)OCCC(C)=CC(=O)N([O-])CCCC(N)C(=O)OCCC(C)=CC(=O)N([O-])CCCC(N)C(=O)OCC1.[Fe+3] (stereo not shown) [[Fe]FSC, [Fe]fusarinine C, reference compound]
concentration of [Fe]siderophore at which growth was supported [2]: 0.1 µM

CC(=O)NC1CCCN([O-])C(=O)C=C(C)CCOC(=O)C(NC(=O)CN)CCCN([O-])C(=O)C=C(C)CCOC(=O)C(NC(=O)CN)CCCN([O-])C(=O)C=C(C)CCOC1=O.[Fe+3] (stereo not shown) [[Fe]MAFC(gly)2, diglycyl[Fe]MAFC]
degree of utilization / growth support by [Fe]siderophore ([2]; 48 h): low degree
concentration of [Fe]siderophore at which growth was supported [2]: 1 µM

CC(=O)NC1CCCN([O-])C(=O)C=C(C)CCOC(=O)C(NC(=O)CCC(=O)O)CCCN([O-])C(=O)C=C(C)CCOC(=O)C(NC(=O)CCC(=O)O)CCCN([O-])C(=O)C=C(C)CCOC1=O.[Fe+3] (stereo not shown) [[Fe]MAFC(suc)2, disuccinyl[Fe]MAFC]
degree of utilization / growth support by [Fe]siderophore ([2]; 48 h): low degree
concentration of [Fe]siderophore at which growth was supported [2]: 1 µM

CC(=O)NC1CCCN([O-])C(=O)C=C(C)CCOC(=O)C(N)CCCN([O-])C(=O)C=C(C)CCOC(=O)C(N)CCCN([O-])C(=O)C=C(C)CCOC1=O.[Fe+3] (stereo not shown) [[Fe]MAFC, acetyl[Fe]FSC]
concentration of [Fe]siderophore at which growth was supported [2]: 0.1 µM

CC(=O)N[C@H]1CCCN(O)C(=[OH+])/C=C(/C)CCOC(=O)[C@@H](NC(C)=O)CCCN(O)C(=[OH+])/C=C(/C)CCOC(=O)[C@@H](NC(C)=O)CCCN(O)C(=[OH+])/C=C(/C)CCOC1=O.[Fe] [[Fe]TAFC, triacetyl[Fe]FSC, reference compound]
degree of utilization / growth support by [Fe]siderophore ([2]; 48 h): Medium degree
